The source of these data is patent publication US8586550B2, “Thiazole derivatives as SGLT2 inhibitors and pharmaceutical composition comprising same” (Green Cross Corporation, priority 2010, dated 2013).

The test addresses T1, Human SGLT2 (hSGLT2) (Homo sapiens, UniProt P31639).
T1 construct: expressed in transfected cells
T1 sequence (P31639 1-672): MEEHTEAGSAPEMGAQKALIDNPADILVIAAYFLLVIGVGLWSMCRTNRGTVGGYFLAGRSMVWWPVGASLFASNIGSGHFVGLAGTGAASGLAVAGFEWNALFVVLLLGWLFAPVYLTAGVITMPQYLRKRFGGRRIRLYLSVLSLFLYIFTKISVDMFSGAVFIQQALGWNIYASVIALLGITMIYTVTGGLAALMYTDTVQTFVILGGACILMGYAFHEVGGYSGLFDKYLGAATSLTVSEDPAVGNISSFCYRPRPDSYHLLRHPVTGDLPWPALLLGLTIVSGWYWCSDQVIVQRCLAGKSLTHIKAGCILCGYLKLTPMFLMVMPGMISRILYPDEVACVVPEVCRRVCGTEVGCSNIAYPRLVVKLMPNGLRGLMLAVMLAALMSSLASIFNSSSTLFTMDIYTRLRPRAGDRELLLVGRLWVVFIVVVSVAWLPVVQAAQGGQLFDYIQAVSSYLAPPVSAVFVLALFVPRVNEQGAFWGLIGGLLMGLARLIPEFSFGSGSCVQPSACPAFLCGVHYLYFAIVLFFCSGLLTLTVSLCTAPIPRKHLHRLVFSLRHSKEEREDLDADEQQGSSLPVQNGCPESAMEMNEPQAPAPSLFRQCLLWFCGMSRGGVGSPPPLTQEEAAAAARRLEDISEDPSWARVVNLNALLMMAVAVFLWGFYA
Kind of test: Sodium-dependent glucose transport (14C-AMG uptake) assay in CHO cells stably expressing hSGLT2. It is filed as cell-based. The note with it: CHO cells expressing hSGLT2, 14C-AMG uptake, 37° C. for 2 h; single determinations; read-out: hSGLT2 Inhibitory Activity IC50. From the text: Cloning and Cell Line Construction for Human SGLT2
Human SGLT2 (hSGLT2) gene was amplified by PCR from cDNA-Human Adult Normal Tissue Kidney (Invitrogen). The hSGLT2 sequence was cloned into pcDNA3.1(+) for mammalian expression and were stably transfected into chinese hamster ovary (CHO) cells. SGLT2-expressing clones were selected based on resistance to G418 antibiotic (Geneticin) and activity in the ^14C-α-methyl-D-glucopyranoside (^14C-AMG) uptake assay.
Inhibitory Effects on Human SGLT2 Activities
For sodium-dependent glucose transport assay, cells expressing hSGLT2 were seeded into a 96-well culture plate at a density of 5×10^4 cells/well in RPMI medium 1640 containing 10% fetal bovine serum. The cells were used 1 day after plating. They were incubated in pretreatment buffer (10 mM HEPES, 5 mM Tris, 140 mM choline chloride, 2 mM KCl, 1 mM CaCl2, and 1 mM MgCl2, pH 7.4) at 37° C. for 10 min. They were then incubated in uptake buffer (10 mM HEPES, 5 mM Tris, 140 mM NaCl, 2 mM KCl, 1 mM CaCl2, 1 mM MgCl2, and 1 mM ^14C-nonlabeled AMG, pH 7.4) containing ^14C-labeled (8 μM) and inhibitor or dimethylsulfoxide (DMSO) vehicle at 37° C. for 2 h. Cells were washed twice with washing buffer (pretreatment buffer containing 10 mM AMG at room temperature) and then the radioactivity was measured using a liquid scintillation counter. IC50 was determined by nonlinear regression analysis using GraphPad PRISM [Katsuno, K. et al. J. Pharmacol. Exp. Ther. 2007, 320, 323-330; Han, S. et al. Deabetes, 2008, 57, 1723-1729].
The IC50 is the concentration that inhibits the measured activity by half. `Cc1ccc([C@@H]2O[C@H](CO)[C@@H](O)[C@H](O)[C@H]2O)cc1Cc1ncc(-c2ccc(Cl)cc2)s1` [Example 38, (2S,3R,4R,5S,6R)-2-(3-((5-(4-Chlorophenyl)thiazol-2-yl)methyl)-4-methylphenyl)-6-(hydroxymethyl)tetrahydro-2H-pyran-3,4,5-triol]: the half-inhibitory concentration (IC50) stood at 25.6 nM.
As for `C=CCOc1cc(Cl)c(Cc2ncc(-c3ccco3)s2)cc1[C@@H]1O[C@H](CO)[C@@H](O)[C@H](O)[C@H]1O` [Example 83, (2S,3R,4R,5S,6R)-2-(2-(Allyloxy)-4-chloro-5-((5-(furan-2-yl)thiazol-2-yl)methyl)phenyl)-6-(hydroxymethyl)tetrahydro-2H-pyran-3,4,5-triol], the IC50 is 1.24 nM.
For the compound `CCCCCCc1cnc(Cc2cc([C@@H]3O[C@H](CO)[C@@H](O)[C@H](O)[C@H]3O)c(Cl)cc2Cl)s1` [Example 67, (2S,3R,4R,5S,6R)-2-(2,4-Dichloro-5-((5-hexylthiazol-2-yl)methyl)phenyl)-6-(hydroxymethyl)tetrahydro-2H-pyran-3,4,5-triol], the IC50 is 38.7 nM.
With `CCOc1cc(Cl)c(Cc2ncc(-c3ccco3)s2)cc1[C@@H]1O[C@H](CO)[C@@H](O)[C@H](O)[C@H]1O` [Example 77, (2S,3R,4R,5S,6R)-2-(4-Chloro-2-ethoxy-5-((5-(furan-2-yl)thiazol-2-yl)methyl)phenyl)-6-(hydroxymethyl)tetrahydro-2H-pyran-3,4,5-triol], the 50% inhibitory concentration (IC50) is 3.98 nM.
For `CSc1ncc(Cc2cc([C@@H]3O[C@H](CO)[C@@H](O)[C@H](O)[C@H]3O)ccc2Cl)s1` [Example 197, (2S,3R,4R,5S,6R)-2-(4-Chloro-3-((2-(methylthio)thiazol-5-yl)methyl)phenyl)-6-(hydroxymethyl)tetrahydro-2H-pyran-3,4,5-triol], the IC50 was found to be 9.48 nM.
As to “(2S,3R,4R,5S,6R)-2-(4-Chloro-2-ethoxy-5-((5-(thiophen-3-yl)thiazol-2-yl)methyl)phenyl)-6-(hydroxymethyl)tetrahydro-2H-pyran-3,4,5-triol [Example 80]”, the IC50 was 1.18 nM.
Regarding `OC[C@H]1O[C@@H](c2cc(Cc3ncc(-c4ccccc4)s3)c(O)c3ccccc23)[C@H](O)[C@@H](O)[C@@H]1O` [Example 125, (2S,3R,4R,5S,6R)-2-(4-Hydroxy-3-((5-phenylthiazol-2-yl)methyl)naphthalen-1-yl)-6-(hydroxymethyl)-tetrahydro-2H-pyran-3,4,5-triol], the IC50 amounted to 30.6 nM.
With `CCCCOC(=O)OC[C@H]1O[C@@H](c2ccc(Cl)c(Cc3ncc(-c4ccco4)s3)c2)[C@H](O)[C@@H](O)[C@@H]1O` [Example 161, Butyl ((2R,3S,4R,5R,6S)-6-(4-chloro-3-((5-(furan-2-yl)thiazol-2-yl)methyl)phenyl)-3,4,5-trihydroxytetrahydro-2H-pyran-2-yl)methyl carbonate], the IC50 was 5.08 nM.
Consider `OC[C@H]1O[C@@H](c2cccc(Cc3ncc(-c4ccco4)s3)c2)[C@H](O)[C@@H](O)[C@@H]1O` [Example 111, (2S,3R,4R,5S,6R)-2-(3-((5-(Furan-2-yl)thiazol-2-yl)methyl)phenyl)-6-(hydroxymethyl)-tetrahydro-2H-pyran-3,4,5-triol], for which the IC50 worked out at 22.6 nM.
Turning to `CCCOc1cnc(Cc2cc([C@@H]3O[C@H](CO)[C@@H](O)[C@H](O)[C@H]3O)ccc2Cl)s1` [Example 22, (2S,3R,4R,5S,6R)-2-(4-Chloro-3-((5-propoxythiazol-2-yl)methyl)phenyl)-6-(hydroxymethyl)-tetrahydro-2H-pyran-3,4,5-triol], the IC50 was 12.4 nM.
As for `CCCCc1cnc(Cc2cc([C@@H]3O[C@H](CO)[C@@H](O)[C@H](O)[C@H]3O)c(Cl)cc2Cl)s1` [Example 66, (2S,3R,4R,5S,6R)-2-(5-((5-Butylthiazol-2-yl)methyl)-2,4-dichlorophenyl)-6-(hydroxymethyl)tetrahydro-2H-pyran-3,4,5-triol], the figure is 60.5 nM; as for `OC[C@H]1O[C@@H](c2ccc(Cl)c(Cc3ncc(C4CCCCC4)s3)c2)[C@H](O)[C@@H](O)[C@@H]1O` [Example 20, (2S,3R,4R,5S,6R)-2-(4-Chloro-3-((5-cyclohexylthiazol-2-yl)methyl)phenyl)-6-(hydroxymethyl)-tetrahydro-2H-pyran-3,4,5-triol], 25.4 nM; as for `COc1cc(Cl)c(Cc2ncc(-c3ccoc3)s2)cc1[C@@H]1O[C@H](CO)[C@@H](O)[C@H](O)[C@H]1O` [Example 70, (2S,3R,4R,5S,6R)-2-(4-Chloro-5-((5-(furan-3-yl)thiazol-2-yl)methyl)-2-methoxyphenyl)-6-(hydroxymethyl)tetrahydro-2H-pyran-3,4,5-triol], 7.37 nM.
Regarding `OC[C@H]1O[C@@H](c2ccc(Cl)c(Cc3ncc(-c4ccc(Cl)s4)s3)c2)[C@H](O)[C@@H](O)[C@@H]1O` [Example 8, (2S,3R,4R,5S,6R)-2-(4-Chloro-3-((5-(5-chlorothiophen-2-yl)thiazol-2-yl)methyl)phenyl)-6-(hydroxymethyl)tetrahydro-2H-pyran-3,4,5-triol], the half-maximal inhibitory concentration (IC50) turned out to be 13.3 nM.
As to `OC[C@H]1O[C@@H](c2ccc(Cl)c(Cc3cnc(-c4ccccc4)s3)c2)[C@H](O)[C@@H](O)[C@@H]1O` [Example 183, (2S,3R,4R,5S,6R)-2-(4-Chloro-3-((2-phenylthiazol-5-yl)methyl)phenyl)-6-(hydroxymethyl)-tetrahydro-2H-pyran-3,4,5-triol], the IC50 was found to be 5.76 nM.
As for `OC[C@H]1O[C@@H](c2cc(Cc3ncc(-c4cccs4)s3)c(Cl)cc2F)[C@H](O)[C@@H](O)[C@@H]1O` [Example 55, (2S,3R,4R,5S,6R)-2-(4-Chloro-2-fluoro-5-((5-(thiophen-2-yl)thiazol-2-yl)methyl)phenyl)-6-(hydroxymethyl)tetrahydro-2H-pyran-3,4,5-triol], the IC50 is 3.88 nM.
As for `CCCCCc1cnc(Cc2cc([C@@H]3O[C@H](CO)[C@@H](O)[C@H](O)[C@H]3O)ccc2Cl)s1` [Example 14, (2S,3R,4R,5S,6R)-2-(4-Chloro-3-((5-pentylthiazol-2-yl)methyl)phenyl)-6-(hydroxymethyl)-tetrahydro-2H-pyran-3,4,5-triol], the IC50 is 13.3 nM.
For `CCCCCCc1cnc(Cc2cc([C@@H]3O[C@H](CO)[C@@H](O)[C@H](O)[C@H]3O)c(OC)cc2Cl)s1` [Example 75, (2S,3R,4R,5S,6R)-2-(4-Chloro-5-((5-hexylthiazol-2-yl)methyl)-2-methoxyphenyl)-6-(hydroxymethyl)tetrahydro-2H-pyran-3,4,5-triol] the value was 4.48 nM.
As for `CCCSc1cnc(Cc2cc([C@@H]3O[C@H](CO)[C@@H](O)[C@H](O)[C@H]3O)ccc2Cl)s1` [Example 25, (2S,3R,4R,5S,6R)-2-(4-Chloro-3-((5-(propylthio)thiazol-2-yl)methyl)phenyl)-6-(hydroxymethyl)-tetrahydro-2H-pyran-3,4,5-triol], the IC50 worked out at 56.4 nM.
On to `OC[C@H]1O[C@@H](c2ccc(Cl)c(Cc3cnc(-c4ccc(F)cc4)s3)c2)[C@H](O)[C@@H](O)[C@@H]1O` [Example 194, (2S,3R,4R,5S,6R)-2-(4-Chloro-3-((2-(4-fluorophenyl)thiazol-5-yl)methyl)phenyl)-6-(hydroxymethyl)tetrahydro-2H-pyran-3,4,5-triol], for which the IC50 came to 6.39 nM.
On to `OC[C@H]1O[C@@H](c2ccc(Cl)c(Cc3cnc(-c4cccs4)s3)c2)[C@H](O)[C@@H](O)[C@@H]1O` [Example 187, (2S,3R,4R,5S,6R)-2-(4-Chloro-3-((2-(thiophen-2-yl)thiazol-5-yl)methyl)phenyl)-6-(hydroxymethyl)tetrahydro-2H-pyran-3,4,5-triol], for which the IC50 was 2.79 nM.
With `OC[C@H]1O[C@@H](c2cc(Cc3ncc(-c4ccsc4)s3)c(Cl)cc2Cl)[C@H](O)[C@@H](O)[C@@H]1O` [Example 62, (2S,3R,4R,5S,6R)-2-(2,4-Dichloro-5-((5-(thiophen-3-yl)thiazol-2-yl)methyl)phenyl)-6-(hydroxymethyl)tetrahydro-2H-pyran-3,4,5-triol], the IC50 is 2.31 nM.
